Numbered stars: 1 amine (or outer) side, 2 acyl side, 3 side chain; on linkers, the order of the positions; unused ones are H or OH. Bridge positions count the residues as written; N and C are the ends. Square brackets hold non-standard residues; d marks the D form. Peptide text beside a SMILES is read from it. I, II: the chains in the order shown. Actinocin(9to1) = Cc1c2oc3c(C)ccc(C(=O)[*:1])c3nc-2c(C(=O)[*:2])c(N)c1=O; NMeV = CN[C@H](C(=O)O)C(C)C; Sar = CNCC(=O)O
Test system: Saccharomyces cerevisiae INVSc1 yeast cells
Experiment: Yeast growth inhibition experiment (Quant-Screen Yeast Assay and OD600)
Type: cell-based
Settings: INVSc1 in YPD medium, 6 hours at 30° C., different concentrations
Description: Serial dilutions of a yeast cell suspension prepared in culture media was placed in each well of a 96-well plate (100 μl/well). Next, 100 μl of reaction buffer containing the CDP-Star® substrate was added to each well. The light emission was then immediately measured in a luminometer (TR717®) (1 sec/well) or NorthStar® (60 sec/plate).
An equivalent aliquot of yeast cell suspension (INVSc1) were inoculated into tubes with 2 ml of minimum medium containing various concentrations of leucine and were grown overnight at 30° C. with shaking. The overnight cultures were then measured by a spectrophotometer at 600 nm to estimate cell density. Next, each of the overnight cultures was transferred (100 μl/well) into a 96-well microplate in triplicate. An equal volume of reaction buffer was added. The plate was placed in TR717™ (a luminometer) to measure total light emission.
100 μof log phase growing yeast cells, INVSc1, were inoculated into tubes with 1 ml of YPD medium containing different concentrations of actinomycin D, a […]. The cultures were grown at 30° C. with shaking for 6 hours. The cultures were measured for OD600 in a spectrophotometer. Next, the cells were transferred (100 μl/well) in triplicate in a 96-well microplate. The assay was performed as in the Growth Stimulation Experiment set forth above.

Compound: Cc1c2oc3c(C)ccc(C(=O)N[C@@H]4C(=O)N[C@H](C(C)C)C(=O)N5CCC[C@H]5C(=O)N(C)CC(=O)N(C)[C@@H](C(C)C)C(=O)O[C@@H]4C)c3nc-2c(C(=O)N[C@@H]2C(=O)N[C@H](C(C)C)C(=O)N3CCC[C@H]3C(=O)N(C)CC(=O)N(C)[C@@H](C(C)C)C(=O)O[C@@H]2C)c(N)c1=O [actinomycin D] (I: T[dV]P[Sar][NMeV] / II: T[dV]P[Sar][NMeV]; ester I:1-I:C, II:1-II:C; linker I:N-II:N via Actinocin(9to1))
- O.D. measurement (OD600): declined with increasing concentrations
- signal intensity (Quant-Screen Yeast Assay, endogenous alkaline phosphatase, light emission): declined with increasing concentrations
